Measured values published in PubChem BioAssay (NCI).
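At the GI50, growth is halved. TGI denotes the concentration required for complete inhibition of growth.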

Experiments:
Test in all cases: growth of human tumour cells (NCI), 384-well format
COLO 205 colon = test system: COLO 205 colon
OVCAR-3 ovarian = test system: OVCAR-3 ovarian
OVCAR-8 ovarian = test system: OVCAR-8 ovarian
SF-295 CNS = test system: SF-295 CNS
NCI-H226 lung = test system: NCI-H226 lung
UACC-62 melanoma = test system: UACC-62 melanoma
KM12 colon = test system: KM12 colon
SF-268 CNS = test system: SF-268 CNS
U251 glioblastoma = test system: U251 glioblastoma
IGROV1 ovarian = test system: IGROV1 ovarian
SNB-19 CNS = test system: SNB-19 CNS
SNB-75 CNS = test system: SNB-75 CNS
HS 578T breast = test system: HS 578T breast
RPMI-8226 leukemia = test system: RPMI-8226 leukemia
NCI/ADR-RES ovarian = test system: NCI/ADR-RES ovarian
PC-3 prostate = test system: PC-3 prostate
ACHN renal = test system: ACHN renal
NCI-H23 lung = test system: NCI-H23 lung
HCT-116 colon = test system: HCT-116 colon
K-562 leukemia = test system: K-562 leukemia
MDA-MB-231 breast = test system: MDA-MB-231 breast
OVCAR-4 ovarian = test system: OVCAR-4 ovarian
NCI-H460 NSCLC = test system: NCI-H460 NSCLC
EKVX NSCLC = test system: EKVX NSCLC
NCI-H522 lung = test system: NCI-H522 lung
T-47D breast = test system: T-47D breast
MOLT-4 leukemia = test system: MOLT-4 leukemia
UACC-257 melanoma = test system: UACC-257 melanoma
CCRF-CEM leukemia = test system: CCRF-CEM leukemia
HOP-62 NSCLC = test system: HOP-62 NSCLC
SK-MEL-28 melanoma = test system: SK-MEL-28 melanoma
UO-31 renal = test system: UO-31 renal
TK-10 renal = test system: TK-10 renal
MDA-MB-435 melanoma = test system: MDA-MB-435 melanoma
M14 melanoma = test system: M14 melanoma
A549 NSCLC = test system: A549 NSCLC
SW-620 colon = test system: SW-620 colon
DU-145 prostate = test system: DU-145 prostate
SK-OV-3 ovarian = test system: SK-OV-3 ovarian
HT29 colon = test system: HT29 colon
BT-549 breast = test system: BT-549 breast
LOX IMVI melanoma = test system: LOX IMVI melanoma
HL-60(TB) leukemia = test system: HL-60(TB) leukemia
MDA-MB-468 breast = test system: MDA-MB-468 breast
SK-MEL-5 melanoma = test system: SK-MEL-5 melanoma
SF-539 CNS = test system: SF-539 CNS
HCT-15 colon = test system: HCT-15 colon
MCF7 breast = test system: MCF7 breast
RXF 393 renal = test system: RXF 393 renal
786-0 renal = test system: 786-0 renal
SN12C renal = test system: SN12C renal
SR leukemia = test system: SR leukemia
HOP-92 NSCLC = test system: HOP-92 NSCLC
NCI-H322M lung = test system: NCI-H322M lung
MALME-3M melanoma = test system: MALME-3M melanoma
CAKI-1 renal = test system: CAKI-1 renal
A498 renal = test system: A498 renal
HCC-2998 colon = test system: HCC-2998 colon

COc1cc2ncnc(Nc3cccc(Cl)c3F)c2cc1OC(=O)N1CCN(C)C[C@H]1C
GI50 (COLO 205 colon): 22.4 µM | TGI (COLO 205 colon): 54 µM | GI50 (OVCAR-3 ovarian): 4.35 µM | TGI (OVCAR-3 ovarian): 24.3 µM | GI50 (OVCAR-8 ovarian): 15.3 µM | TGI (OVCAR-8 ovarian): 49.2 µM | GI50 (SF-295 CNS): 16.3 µM | TGI (SF-295 CNS): 31.4 µM | GI50 (NCI-H226 lung): 11.7 µM | TGI (NCI-H226 lung): 33.8 µM | GI50 (UACC-62 melanoma): 14.2 µM | TGI (UACC-62 melanoma): 28.1 µM | GI50 (KM12 colon): 20.1 µM | TGI (KM12 colon): 41.4 µM | GI50 (SF-268 CNS): 18.8 µM | TGI (SF-268 CNS): 54 µM | GI50 (U251 glioblastoma): 20.2 µM | TGI (U251 glioblastoma): 48 µM | GI50 (IGROV1 ovarian): 0.241 µM | TGI (IGROV1 ovarian): 11.9 µM | GI50 (SNB-19 CNS): 27.7 µM | TGI (SNB-19 CNS): > 100 µM | GI50 (SNB-75 CNS): 17.6 µM | TGI (SNB-75 CNS): 47.1 µM | GI50 (HS 578T breast): 15.2 µM | TGI (HS 578T breast): 29.6 µM | GI50 (RPMI-8226 leukemia): 14.6 µM | TGI (RPMI-8226 leukemia): 30.9 µM | GI50 (NCI/ADR-RES ovarian): 18 µM | TGI (NCI/ADR-RES ovarian): 64.2 µM | GI50 (PC-3 prostate): 15.6 µM | TGI (PC-3 prostate): 49.8 µM | GI50 (ACHN renal): 0.427 µM | TGI (ACHN renal): 20.7 µM | GI50 (NCI-H23 lung): 16.4 µM | TGI (NCI-H23 lung): 41.7 µM | GI50 (HCT-116 colon): 16.9 µM | TGI (HCT-116 colon): 32.8 µM | GI50 (K-562 leukemia): 5.49 µM | TGI (K-562 leukemia): 17.8 µM | GI50 (MDA-MB-231 breast): 14.7 µM | TGI (MDA-MB-231 breast): 38.4 µM | GI50 (OVCAR-4 ovarian): 18.5 µM | TGI (OVCAR-4 ovarian): 51.5 µM | GI50 (NCI-H460 NSCLC): 19.9 µM | TGI (NCI-H460 NSCLC): 44.2 µM | GI50 (EKVX NSCLC): 0.304 µM | TGI (EKVX NSCLC): 16.7 µM | GI50 (NCI-H522 lung): 0.851 µM | TGI (NCI-H522 lung): 17.5 µM | GI50 (T-47D breast): 9.89 µM | TGI (T-47D breast): 40.9 µM | GI50 (MOLT-4 leukemia): 14.2 µM | TGI (MOLT-4 leukemia): 28.1 µM | GI50 (UACC-257 melanoma): 17.5 µM | TGI (UACC-257 melanoma): 31.5 µM | GI50 (CCRF-CEM leukemia): 20.1 µM | TGI (CCRF-CEM leukemia): 49.2 µM | GI50 (HOP-62 NSCLC): 17.6 µM | TGI (HOP-62 NSCLC): 42 µM | GI50 (SK-MEL-28 melanoma): 14.6 µM | TGI (SK-MEL-28 melanoma): 28 µM | GI50 (UO-31 renal): 6.94 µM | TGI (UO-31 renal): 27.9 µM | GI50 (TK-10 renal): 0.573 µM | TGI (TK-10 renal): 21.3 µM | GI50 (MDA-MB-435 melanoma): 22.6 µM | TGI (MDA-MB-435 melanoma): 55.8 µM | GI50 (M14 melanoma): 16.4 µM | TGI (M14 melanoma): 30.7 µM | GI50 (A549 NSCLC): 12.3 µM | TGI (A549 NSCLC): 43.1 µM | GI50 (SW-620 colon): 20.3 µM | TGI (SW-620 colon): 38.2 µM | GI50 (DU-145 prostate): 13.5 µM | TGI (DU-145 prostate): 58.2 µM | GI50 (SK-OV-3 ovarian): 3.46 µM | TGI (SK-OV-3 ovarian): 22.7 µM | GI50 (HT29 colon): 14.4 µM | TGI (HT29 colon): 31.2 µM | GI50 (BT-549 breast): 20.3 µM | TGI (BT-549 breast): 46.5 µM | GI50 (LOX IMVI melanoma): 16.3 µM | TGI (LOX IMVI melanoma): 30.5 µM | GI50 (HL-60(TB) leukemia): 16.5 µM | TGI (HL-60(TB) leukemia): 30.2 µM | GI50 (MDA-MB-468 breast): 0.128 µM | TGI (MDA-MB-468 breast): 0.446 µM | GI50 (SK-MEL-5 melanoma): 11.5 µM | TGI (SK-MEL-5 melanoma): 24.9 µM | GI50 (SF-539 CNS): 16.7 µM | TGI (SF-539 CNS): 32.5 µM | GI50 (HCT-15 colon): 13.9 µM | TGI (HCT-15 colon): 29.2 µM | GI50 (MCF7 breast): 19.8 µM | TGI (MCF7 breast): 87.4 µM | GI50 (RXF 393 renal): 14.1 µM | TGI (RXF 393 renal): 29.2 µM | GI50 ([…]-0 renal): 14.4 µM | TGI (786-0 renal): 29 µM | GI50 (SN12C renal): 2.69 µM | TGI (SN12C renal): 27.6 µM | GI50 (SR leukemia): 10.8 µM | TGI (SR leukemia): 23.6 µM | GI50 (HOP-92 NSCLC): 13.4 µM | TGI (HOP-92 NSCLC): 28.5 µM | GI50 (NCI-H322M lung): 0.144 µM | TGI (NCI-H322M lung): 10.8 µM | GI50 (MALME-3M melanoma): 15.1 µM | TGI (MALME-3M melanoma): 28.8 µM | GI50 (CAKI-1 renal): 2.3 µM | TGI (CAKI-1 renal): 20.4 µM | GI50 (A498 renal): 17 µM | TGI (A498 renal): 42.5 µM | GI50 (HCC-2998 colon): 17.3 µM | TGI (HCC-2998 colon): 32.4 µM
